Measured values as given in DBAASP.
≈ marks a conversion by molar mass, not a printed value.

How the values were obtained:
Experiment in all cases: ≥ marks a high value that may be exact or a test limit, other limits are often not marked, values filed in µg/mL are converted to µM
[1] = tested on: Bacillus subtilis KCTC 1998
[2] = tested on: Candida albicans KCTC 7270
[3] = tested on: Escherichia coli ATCC 25922
[4] = tested on: Escherichia coli CCARM 1229
[5] = tested on: Escherichia coli CCARM 1238
[6] = tested on: Listeria monocytogenes KCTC 3710
[7] = tested on: Pseudomonas aeruginosa 4007
[8] = tested on: Pseudomonas aeruginosa 4891
[9] = tested on: Pseudomonas aeruginosa ATCC 27853
[10] = tested on: Salmonella typhimurium KCTC 1926
[11] = tested on: Staphylococcus aureus ATCC 25923
[12] = tested on: Staphylococcus aureus CCARM 3090
[13] = tested on: Staphylococcus aureus CCARM 3518
[14] = tested on: Trichosporon beigelii KCTC 7707
[15] = tested on: Candida parapsilosis CGMCC 2.3989
[16] = tested on: Candida tropicalis CGMCC 2.1975
Escherichia coli 078 = tested on: Escherichia coli 078
Escherichia coli K88 = tested on: Escherichia coli K88
Escherichia coli K99 = tested on: Escherichia coli K99
Escherichia coli UB1005 = tested on: Escherichia coli UB1005
[17] = tested on: Salmonella enterica subsp. enterica serovar Pullorum ATCC 7913
[18] = tested on: Salmonella enterica subsp. enterica serovar Typhimurium ATCC 14028
[19] = tested on: Salmonella enterica subsp. enterica serovar Typhimurium C77-31
[20] = tested on: Staphylococcus aureus ATCC 43300
[21] = tested on: Staphylococcus epidermidis ATCC 12228
[22] = tested on: Enterococcus faecalis ATCC 29212
[23] = tested on: Salmonella enterica subsp. enterica serovar Choleraesuis CVCC 503
[24] = tested on: Salmonella enterica subsp. enterica serovar Pullorum C79-13
[25] = tested on: Staphylococcus aureus ATCC 29213
Staphylococcus aureus = tested on: Staphylococcus aureus
Streptococcus agalactiae = tested on: Streptococcus agalactiae

| MIC [1] [µM] | MIC [2] [µM] | MIC [3] [µM] | MIC [4] [µM] | MIC [5] [µM] | MIC [6] [µM] | MIC [7] [µM] | MIC [8] [µM] | MIC [9] [µM] | MIC [10] [µM] | MIC [11] [µM] | MIC [12] [µM] | MIC [13] [µM] | MIC [14] [µM] | MIC (Escherichia coli UB1005) [µM] | MIC [18] [µM] | MIC [19] [µM] | MIC [20] [µM] | MIC [21] [µM] | Compound | also measured |
| --- | --- | --- | --- | --- | --- | --- | --- | --- | --- | --- | --- | --- | --- | --- | --- | --- | --- | --- | --- | --- |
| 16 (≈ 41.5 µg/mL) | ≥ 32 | 8 (≈ 20.8 µg/mL) | 16 (≈ 41.5 µg/mL) | 16 (≈ 41.5 µg/mL) | 16 (≈ 41.5 µg/mL) | ≥ 32 | ≥ 32 | 8 (≈ 20.8 µg/mL) | 8 (≈ 20.8 µg/mL) | 16 (≈ 41.5 µg/mL) | ≥ 32 | ≥ 32 | ≥ 32 |  |  |  |  |  | CC[C@H](C)[C@H](NC(=O)CNC(=O)[C@H](CCC(N)=O)NC(=O)[C@H](CO)NC(=O)[C@@H](NC(=O)[C@H](CCCCN)NC(=O)[C@H](CCCCN)NC(=O)[C@H](CC(C)C)NC(=O)[C@H](C)NC(=O)[C@H](CC(N)=O)NC(=O)[C@H](CC(C)C)NC(=O)[C@H](C)N)C(C)C)C(=O)N[C@@H](Cc1cnc[nH]1)C(=O)N[C@@H](CCC(=O)O)C(=O)N[C@@H](C)C(=O)N[C@H](C(=O)N[C@@H](CCCCN)C(=O)N[C@@H](CC(C)C)C(=O)N[C@H](C(=O)N[C@@H](C)C(=O)N[C@@H](CC(N)=O)C(=O)N[C@@H](Cc1cnc[nH]1)C(=O)N[C@H](C(=O)N[C@@H](CCC(N)=O)C(N)=O)C(C)C)[C@@H](C)CC)[C@@H](C)CC [ALNALKKVSQGIHEAIKLIANHVQ] |  |
| 8 (≈ 16.3 µg/mL) | 16 (≈ 32.6 µg/mL) | 4 (≈ 8.14 µg/mL) | 4 (≈ 8.14 µg/mL) | 4 (≈ 8.14 µg/mL) | 8 (≈ 16.3 µg/mL) | 4 (≈ 8.14 µg/mL) | 8 (≈ 16.3 µg/mL) | 4 (≈ 8.14 µg/mL) | 4 (≈ 8.14 µg/mL) | 8 (≈ 16.3 µg/mL) | 8 (≈ 16.3 µg/mL) | 8 (≈ 16.3 µg/mL) | 16 (≈ 32.6 µg/mL) |  |  |  |  |  | CC[C@H](C)[C@H](NC(=O)[C@H](CC(C)C)NC(=O)[C@H](CCCCN)NC(=O)[C@@H](NC(=O)[C@H](C)NC(=O)[C@H](CCC(=O)O)NC(=O)[C@H](Cc1cnc[nH]1)NC(=O)[C@@H](NC(=O)CNC(=O)[C@H](CCC(N)=O)NC(=O)[C@H](Cc1ccccc1)NC(=O)[C@@H](NC(=O)[C@H](CCCCN)NC(=O)[C@H](CCCCN)NC(=O)[C@H](CC(C)C)NC(=O)[C@H](C)NC(=O)[C@H](CC(N)=O)NC(=O)[C@@H](N)CC(C)C)C(C)C)[C@@H](C)CC)[C@@H](C)CC)C(N)=O [LNALKKVFQGIHEAIKLI] |  |
|  |  |  |  |  |  |  |  | 4 (≈ 5.83 µg/mL) |  | 2 (≈ 2.91 µg/mL) |  |  |  | 4 (≈ 5.83 µg/mL) | 2 (≈ 2.91 µg/mL) | 4 (≈ 5.83 µg/mL) | 1 (≈ 1.46 µg/mL) | 1 (≈ 1.46 µg/mL) | CC[C@H](C)[C@H](NC(=O)[C@H](CCCN=C(N)N)NC(=O)[C@H](C)NC(=O)[C@H](C)N)C(=O)N[C@H](C(=O)N[C@@H](CC(C)C)C(=O)N[C@@H](CCCN=C(N)N)C(=O)N[C@@H](Cc1c[nH]c2ccccc12)C(=O)N[C@@H](CCCN=C(N)N)C(=O)N[C@@H](Cc1ccccc1)C(=O)N[C@@H](CCCN=C(N)N)C(N)=O)[C@@H](C)CC [AARIILRWRFR] | MIC [15]: 4 µM (≈ 5.83 µg/mL); MIC [16]: 4 µM (≈ 5.83 µg/mL); MIC (Escherichia coli 078): 2 µM (≈ 2.91 µg/mL); MIC (Escherichia coli K88): 2 µM (≈ 2.91 µg/mL); MIC (Escherichia coli K99): 2 µM (≈ 2.91 µg/mL); MIC [17]: 2 µM (≈ 2.91 µg/mL) |
|  |  | 64 (≈ 92.1 µg/mL) |  |  |  |  |  |  |  |  |  |  |  | ≥ 64 | > 64 | ≥ 64 | > 64 | > 64 | CC[C@H](C)[C@H](N)C(=O)N[C@@H](CS)C(=O)N[C@@H](CCCN=C(N)N)C(=O)N[C@@H](CCCCN)C(=O)N1CCC[C@H]1C(=O)N[C@H](C(=O)N[C@H](C(=O)N[C@@H](CS)C(=O)N[C@@H](CCCN=C(N)N)C(=O)N[C@@H](CCCCN)C(=O)N1CCC[C@H]1C(=O)N[C@H](C(N)=O)[C@@H](C)CC)[C@@H](C)CC)[C@@H](C)CC [ICRKPIICRKPI] | MIC [22]: > 64 µM; MIC [23]: ≥ 64 µM; MIC [24]: ≥ 64 µM; MIC [25]: > 64 µM; MIC (Staphylococcus aureus): > 64 µM; MIC (Streptococcus agalactiae): ≥ 64 µM |
